Assay results as given in US8017809B2, “Bisboron compound” (Japan Science and Technology Agency, priority 2005, dated 2011).
Where two headings read alike, the source gives them in different places. Values belong to the compound of their own block, whether it stands above or below them.

Tested on: capacitative calcium entry (CCE) in IP3 receptor-deficient strain of cell line DT40
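Also: intracellular Ca2+ read as 340/380 nm excitation ratio at 510 nm emission, stores emptied by thapsigargin without external Ca2+, then 2 mM CaCl2 added, inhibition of the ensuing Ca2+ rise.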

Procedure: (Assay of Capacitative Calcium Entry Inhibition)
Its 510 nm fluorescence obtained at 340 nm and 380 nm is measured and the fluorescence ratio F340/380 is measured to determine the intracellular calcium ion concentration. Next, thapsigargin (an endoplasmic reticulum calcium ion pump inhibitor) is allowed to act without calcium ion in an extracellular fluid to deplete an intracellular calcium store. Calcium chloride at a final concentration of 2 mM is added to the extracellular fluid. The IC50 value is calculated by estimating the effect of each compound on the degree of increase in the intracellular calcium concentration at the time of the addition.

Compound: NCCOB(c1ccc(COCCOc2ccc(B(OCCN)c3cccs3)cc2)cc1)c1cccs1 [Example 53, (4-(2-Thiopheneaminoethoxyboryl)phenoxyethyl) (4′-(2-thiopheneaminoethoxyboryl)benzyl) ether]
inhibition (1 µM): 10%

Compound: OB(c1ccccc1)c1cccc(COCc2cccc(B(O)c3ccccc3)c2)c1 [Example 4]
inhibition (0.1 µM): 70%
inhibition (0.3 µM): 95%
inhibition (1 µM): 100%

Compound: CNCCOB(c1ccccc1)c1ccc(Oc2ccc(B(OCCNC)c3ccccc3)cc2)cc1 [Example 68, Bis(4,4′-(phenyl-N-methylaminoethoxyboryl)phenyl) ether]
inhibition (0.3 µM): 20%
inhibition (1 µM): 80%

Compound: COc1ccc(B(OCCN)c2ccc(COCc3ccc(B(OCCN)c4ccc(OC)cc4)cc3)cc2)cc1 [Example 94, Bis(4,4′-(p-methoxyphenyl-aminoethoxyboryl)benzyl) ether]
inhibition (1 µM): 0%
inhibition (3 µM): 100%

Compound: CNCCOB(c1ccc(COCc2ccc(B(OCCNC)c3ccc(OC)cc3)cc2)cc1)c1ccc(OC)cc1 [Example 95, Bis(4,4′-(p-methoxyphenyl-N-methylaminoethoxyboryl)benzyl) ether]
inhibition (1 µM): 80%
inhibition (3 µM): 80%

Compound: Cc1ccc(B(O)c2ccc(COCc3ccc(B(O)c4ccc(C)c(Cl)c4)cc3)cc2)cc1Cl [Example 90, Bis(4,4′-(3-chloro-4-methylphenyl-hydroxyboryl)benzyl) ether]
inhibition (1 µM): 20%
inhibition (3 µM): 100%

Compound: Cc1ccc(B(OCCN)c2ccc(COCc3ccc(B(OCCN)c4ccc(C)c(Cl)c4)cc3)cc2)cc1Cl [Example 102, Bis(4,4′-(3-chloro-4-methylphenyl-aminoethoxyboryl)benzyl) ether]
inhibition (1 µM): 30%
inhibition (3 µM): 100%

IC50: 5 µM
Compound: NCCOB(c1ccccc1)c1ccccc1 [(2-aminoethoxy)diphenylborane, reference compound]

Compound: CCCCNCCOB(c1ccccc1)c1ccc(COCc2ccc(B(OCCNCCCC)c3ccccc3)cc2)cc1 [Example 136, Bis(4,4′-(phenyl-butylaminoethoxyboryl)benzyl) ether]
inhibition (1 µM): 30%
inhibition (3 µM): 100%

Compound: c1ccc(B(OCc2ccccn2)c2ccc(COc3ccc(B(OCc4ccccn4)c4ccccc4)cc3)cc2)cc1 [Example 111, (4-Phenyl-2-pyridylmethoxyborylphenyl) (4′-phenyl-2-pyridylmethoxyborylbenzyl) ether]
inhibition (1 µM): 20%
inhibition (3 µM): 100%

Compound: Bis(4,4′-(phenyl-N-methylpiperidine-methoxyboryl)benzyl) ether [Example 139]
inhibition (1 µM): 40%
inhibition (3 µM): 100%

Compound: Bis(4,4′-(phenyl-ornithineboryl)phenyl) ether [Example 117]
inhibition (1 µM): 80%
inhibition (3 µM): 100%

Compound: CNCCOB(c1ccc(COCc2ccc(B(OCCNC)c3ccc(C)c(Cl)c3)cc2)cc1)c1ccc(C)c(Cl)c1 [Example 103, Bis(4,4′-(3-chloro-4-methylphenyl-N-methylaminoethoxyboryl)benzyl) ether]
inhibition (1 µM): 30%
inhibition (3 µM): 80%

Compound: NCC(OB(c1ccccc1)c1cccc(COCc2cccc(B(OC(CN)c3ccccc3)c3ccccc3)c2)c1)c1ccccc1 (stereo not drawn) [Example 150, Bis(3,3′-(phenyl-2-amino-1-phenylethoxyboryl)benzyl) ether]
inhibition (1 µM): 50%
inhibition (3 µM): 100%

Compound: CC(CCNCCN)OB(c1ccccc1)c1cccc(COCc2cccc(B(OC(C)CCNCCN)c3ccccc3)c2)c1 (stereo not drawn) [Example 152, Bis(3,3′-(phenyl-N-aminoethyl-1-methyl-3-aminopropoxyboryl)benzyl) ether]
inhibition (1 µM): 40%
inhibition (3 µM): 80%

Compound: CN(C)CCOB(c1ccccc1)c1ccc(COc2ccc(B(OCCN(C)C)c3ccccc3)cc2)cc1 [Example 110, (4-Phenyl-N,N-dimethylaminoethoxyborylphenyl) 4′-(N,N-dimethylaminoethoxyborylbenzyl) ether]
inhibition (1 µM): 20%
inhibition (3 µM): 100%

Compound: NCCOB(c1ccccc1)c1cccc(COCc2cccc(B(OCCN)c3ccccc3)c2)c1 [Example 5, Bis(3,3′-(phenylaminoethoxyboryl)benzyl) ether]
inhibition (0.03 µM): 30%
inhibition (0.1 µM): 95%
inhibition (0.3 µM): 100%

Compound: CNCCOB(c1ccccc1)c1ccc(COc2ccc(B(OCCNC)c3ccccc3)cc2)cc1 [Example 109, (4-Phenyl-N-methylaminoethoxyborylphenyl) 4′-(N-methylaminoethoxyborylbenzyl) ether]
inhibition (1 µM): 80%
inhibition (3 µM): 100%

Compound: c1ccc(B(OCC2CCCN2)c2ccc(COCc3ccc(B(OCC4CCCN4)c4ccccc4)cc3)cc2)cc1 (stereo not drawn) [Example 134, Bis(4,4′-(phenyl-2-pyrrolidinemethoxyboryl)benzyl) ether]
inhibition (1 µM): 20%
inhibition (3 µM): 100%

Compound: CNCCOB(c1ccc(COc2ccc(B(OCCNC)c3ccc(C(F)(F)F)cc3)cc2)cc1)c1ccc(C(F)(F)F)cc1 [Example 84, (4′-Trifluoromethylphenyl-N-methylaminoethoxyboryl)-4-phenyl (4′-trifluoromethylphenyl-N-methylaminoethoxyboryl)-4-benzyl ether]
inhibition (1 µM): 50%
inhibition (3 µM): 100%

Compound: NCCOB(c1ccccc1)c1ccc(COc2ccc(B(OCCN)c3ccccc3)cc2)cc1 [Example 52, (4-Phenylaminoethoxyborylphenyl) (4′-phenylaminoethoxyborylbenzyl) ether]
inhibition (3 µM): 100%

Compound: CCCCNCCB(c1ccccc1)c1cccc(COCc2cccc(B(CCNCCCC)c3ccccc3)c2)c1 [Example 155, Bis(3,3′-(phenyl-N-butylaminoethylboryl)benzyl) ether]
inhibition (1 µM): 95%
inhibition (3 µM): 100%

Compound: OB(c1ccccc1)c1ccc(Oc2ccc(B(O)c3ccccc3)cc2)cc1 [Example 1, Bis(4,4′-(phenylhydroxyboryl)phenyl) ether]
inhibition (3 µM): 50%

Compound: NCCOB(c1ccccc1)c1cccc(COCc2ccccc2B(OCCN)c2ccccc2)c1 [Example 15, (2-(Phenylaminoethoxyboryl)benzyl) (3-(phenylaminoethoxyboryl)benzyl) ether]
inhibition (0.3 µM): 100%
inhibition (1 µM): 100%
inhibition (3 µM): 100%

Compound: CN(C)CCOB(c1ccc(COCc2ccc(B(OCCN(C)C)c3ccc(C(F)(F)F)cc3)cc2)cc1)c1ccc(C(F)(F)F)cc1 [Example 106, Bis(4,4′-(p-trifluoromethylphenyl-N,N-dimethylaminoethoxyboryl)benzyl) ether]
inhibition (1 µM): 30%
inhibition (3 µM): 100%

Compound: CNCCOB(c1ccccc1)c1cccc(COCc2cccc(B(OCCNC)c3ccccc3)c2)c1 [Example 151, Bis(3,3′-(phenyl-N-methylethoxyboryl)benzyl) ether]
inhibition (1 µM): 60%
inhibition (3 µM): 100%

Compound: NCCOB(c1ccc(COCc2ccc(B(OCCN)c3ccc(C(F)(F)F)cc3)cc2)cc1)c1ccc(C(F)(F)F)cc1 [Example 108, Bis(4,4′-(p-trifluoromethylphenyl-aminoethoxyboryl)benzyl) ether]
inhibition (1 µM): 20%
inhibition (3 µM): 100%

Compound: c1ccc(B(OCc2ccccn2)c2ccc(COCc3ccc(B(OCc4ccccn4)c4ccccc4)cc3)cc2)cc1 [Example 88, Bis(4,4′-(phenyl-2-pyridylmethoxyboryl)benzyl) ether]
inhibition (1 µM): 95%
inhibition (3 µM): 100%

Compound: OB(c1ccccc1)c1ccc(COc2ccc(B(O)c3ccccc3)cc2)cc1 [Example 51, (4-Phenylhydroxyborylphenyl) (4′-phenylhydroxyborylbenzyl) ether]
inhibition (1 µM): 20%
inhibition (3 µM): 100%
